Laboratory results: PubChem BioAssay (NCI)
Where “and” joins values, the source holds several entries; their conditions need not be identical. Equal values may be shown once.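 The compound was tested at five concentrations on cells cultured in 96-well plates, with a 48-hour exposure period. Here, GI50 denotes the concentration required for 50% inhibition of growth. The concentration for full growth arrest is given as TGI.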

What was measured:
Test in all cases: DTP human tumour cell line panel, 48 h
NCI/ADR-RES ovarian = system: NCI/ADR-RES ovarian
UACC-62 melanoma = system: UACC-62 melanoma
HOP-92 NSCLC = system: HOP-92 NSCLC
A549 NSCLC = system: A549 NSCLC
HCT-116 colon = system: HCT-116 colon
TK-10 renal = system: TK-10 renal
NCI-H522 lung = system: NCI-H522 lung
IGROV1 ovarian = system: IGROV1 ovarian
HL-60(TB) leukemia = system: HL-60(TB) leukemia
DU-145 prostate = system: DU-145 prostate
LOX IMVI melanoma = system: LOX IMVI melanoma
HOP-62 NSCLC = system: HOP-62 NSCLC
SF-539 CNS = system: SF-539 CNS
UO-31 renal = system: UO-31 renal
SN12C renal = system: SN12C renal
HS 578T breast = system: HS 578T breast
MDA-MB-435 = system: MDA-MB-435
UACC-257 melanoma = system: UACC-257 melanoma
HCC-2998 colon = system: HCC-2998 colon
SNB-19 CNS = system: SNB-19 CNS
NCI-H23 lung = system: NCI-H23 lung
SK-MEL-5 melanoma = system: SK-MEL-5 melanoma
SF-268 CNS = system: SF-268 CNS
HCT-15 colon = system: HCT-15 colon
SW-620 colon = system: SW-620 colon
SK-MEL-28 melanoma = system: SK-MEL-28 melanoma
OVCAR-8 ovarian = system: OVCAR-8 ovarian
MALME-3M melanoma = system: MALME-3M melanoma
OVCAR-4 ovarian = system: OVCAR-4 ovarian
NCI-H460 lung = system: NCI-H460 lung
CCRF-CEM leukemia = system: CCRF-CEM leukemia
SR leukemia = system: SR leukemia
RPMI-8226 leukemia = system: RPMI-8226 leukemia
T-47D breast = system: T-47D breast
OVCAR-3 ovarian = system: OVCAR-3 ovarian
U251 CNS = system: U251 CNS
EKVX NSCLC = system: EKVX NSCLC
BT-549 breast = system: BT-549 breast
MCF7 breast = system: MCF7 breast
SK-MEL-2 melanoma = system: SK-MEL-2 melanoma
MDA-MB-231 breast = system: MDA-MB-231 breast
K-562 leukemia = system: K-562 leukemia
ACHN renal = system: ACHN renal
NCI-H226 lung = system: NCI-H226 lung
SK-OV-3 ovarian = system: SK-OV-3 ovarian
COLO 205 colon = system: COLO 205 colon
PC-3 prostate = system: PC-3 prostate
KM12 colon = system: KM12 colon
RXF 393 renal = system: RXF 393 renal
OVCAR-5 ovarian = system: OVCAR-5 ovarian
M14 melanoma = system: M14 melanoma
SNB-75 CNS = system: SNB-75 CNS
SF-295 CNS = system: SF-295 CNS
A498 renal = system: A498 renal
HT29 colon = system: HT29 colon
MOLT-4 leukemia = system: MOLT-4 leukemia
786-0 renal = system: 786-0 renal

CC(=O)N[C@H]1C=C[C@@H]2/C=C(C)/C=C/[C@@H](C)[C@H]([C@H](C)[C@H](O)[C@@H](C)NC(C)=O)OC(=O)/C=C/C=C(C)\C=C\[C@]2(C)C1
GI50 (NCI/ADR-RES ovarian): 0.213 µM and 0.0397 µM
TGI (NCI/ADR-RES ovarian): 4.65 µM and > 45 µM
GI50 (UACC-62 melanoma): 0.0228 µM and 0.0315 µM
TGI (UACC-62 melanoma): 4.65 µM and 13.3 µM
GI50 (HOP-92 NSCLC): 0.00954 µM and 0.0045 µM
TGI (A549 NSCLC): 4.65 µM and > 45 µM
GI50 (HCT-116 colon): 0.00564 µM and 0.0045 µM
TGI (HCT-116 colon): 4.65 µM and > 45 µM
GI50 (TK-10 renal): 0.00805 µM
TGI (TK-10 renal): 44.6 µM
GI50 (NCI-H522 lung): 0.0368 µM and 0.00931 µM
TGI (NCI-H522 lung): 4.65 µM and 8.99 µM
GI50 (IGROV1 ovarian): 0.0215 µM and 0.00532 µM
TGI (IGROV1 ovarian): 4.65 µM and > 45 µM
TGI (HL-60(TB) leukemia): 4.65 µM and 20.6 µM
GI50 (DU-145 prostate): 0.0294 µM and 0.00897 µM
TGI (DU-145 prostate): 4.65 µM and > 45 µM
GI50 (LOX IMVI melanoma): 0.00734 µM and < 0.0045 µM
TGI (LOX IMVI melanoma): 0.016 µM and < 0.0045 µM
TGI (HOP-62 NSCLC): 4.65 µM and > 45 µM
GI50 (SF-539 CNS): 0.0107 µM and 0.0045 µM
TGI (SF-539 CNS): 4.65 µM and 24.6 µM
GI50 (UO-31 renal): 0.00414 µM and 0.0045 µM
TGI (UO-31 renal): 4.65 µM and 10.6 µM
GI50 (SN12C renal): 0.0212 µM and 0.00535 µM
TGI (SN12C renal): 4.65 µM and > 45 µM
GI50 (HS 578T breast): 0.0161 µM and 0.0045 µM
TGI (HS 578T breast): 4.65 µM and 3.28 µM
GI50 (MDA-MB-435): 0.00823 µM
TGI (MDA-MB-435): 4.65 µM
TGI (UACC-257 melanoma): 4.65 µM and 16.5 µM
GI50 (HCC-2998 colon): 5.04 µM
TGI (HCC-2998 colon): > 45 µM
GI50 (SNB-19 CNS): 0.256 µM and 0.072 µM
TGI (SNB-19 CNS): 4.65 µM and > 45 µM
TGI (NCI-H23 lung): 4.65 µM and > 45 µM
GI50 (SK-MEL-5 melanoma): 0.00896 µM and 0.0045 µM
TGI (SK-MEL-5 melanoma): 0.0458 µM and 0.00824 µM
GI50 (SF-268 CNS): 0.126 µM and 0.0322 µM
TGI (SF-268 CNS): 4.65 µM and > 45 µM
GI50 (HCT-15 colon): 0.0361 µM and 0.00939 µM
TGI (HCT-15 colon): 4.65 µM and > 45 µM
GI50 (SW-620 colon): 0.0178 µM and 0.0045 µM
TGI (SW-620 colon): 4.65 µM and > 45 µM
GI50 (SK-MEL-28 melanoma): 0.0306 µM and 0.00647 µM
TGI (SK-MEL-28 melanoma): 4.65 µM and > 45 µM
TGI (OVCAR-8 ovarian): 4.65 µM and > 45 µM
TGI (MALME-3M melanoma): 4.65 µM and 24.7 µM
GI50 (OVCAR-4 ovarian): 6.59 µM
TGI (OVCAR-4 ovarian): > 45 µM
GI50 (NCI-H460 lung): 0.0045 µM
TGI (NCI-H460 lung): > 45 µM
GI50 (CCRF-CEM leukemia): 6.32 µM
TGI (CCRF-CEM leukemia): > 45 µM
GI50 (SR leukemia): 0.0184 µM and 0.0045 µM
TGI (SR leukemia): 4.65 µM and 20.3 µM
GI50 (RPMI-8226 leukemia): 0.0428 µM and 0.0045 µM
TGI (RPMI-8226 leukemia): 4.65 µM and 13.1 µM
GI50 (T-47D breast): 0.0131 µM and 0.0045 µM
TGI (T-47D breast): 4.65 µM and 5.18 µM
GI50 (OVCAR-3 ovarian): 0.0045 µM
TGI (OVCAR-3 ovarian): 18 µM
GI50 (U251 CNS): 0.00747 µM and 0.0045 µM
TGI (U251 CNS): 4.65 µM and > 45 µM
TGI (EKVX NSCLC): 4.65 µM and > 45 µM
GI50 (BT-549 breast): 0.023 µM and 0.0045 µM
TGI (BT-549 breast): 4.65 µM and > 45 µM
GI50 (MCF7 breast): 0.0336 µM and 0.0045 µM
TGI (MCF7 breast): 4.65 µM and > 45 µM
GI50 (SK-MEL-2 melanoma): 5.11 µM
TGI (SK-MEL-2 melanoma): 17.9 µM
GI50 (MDA-MB-231 breast): 0.00333 µM and < 0.0045 µM
TGI (MDA-MB-231 breast): 0.0235 µM and < 0.0045 µM
GI50 (K-562 leukemia): 0.0307 µM and 0.00538 µM
TGI (K-562 leukemia): 4.65 µM and > 45 µM
GI50 (ACHN renal): 0.0186 µM and 0.0045 µM
TGI (ACHN renal): 4.65 µM and > 45 µM
GI50 (NCI-H226 lung): 0.0157 µM and 0.0045 µM
TGI (NCI-H226 lung): 4.65 µM and 7.18 µM
GI50 (SK-OV-3 ovarian): 0.0117 µM and 0.0045 µM
TGI (SK-OV-3 ovarian): 4.65 µM and > 45 µM
GI50 (COLO 205 colon): 0.0173 µM and 0.0045 µM
TGI (COLO 205 colon): 4.65 µM and 5.38 µM
GI50 (PC-3 prostate): 0.0202 µM and 0.0045 µM
TGI (PC-3 prostate): 4.65 µM and > 45 µM
GI50 (KM12 colon): 0.0246 µM and 0.0045 µM
TGI (KM12 colon): 4.65 µM and > 45 µM
GI50 (RXF 393 renal): 0.0103 µM and 0.0045 µM
GI50 (OVCAR-5 ovarian): 14.1 µM
TGI (OVCAR-5 ovarian): > 45 µM
GI50 (M14 melanoma): 0.00734 µM and 0.0045 µM
GI50 (SNB-75 CNS): 0.00243 µM and 0.0045 µM
GI50 (SF-295 CNS): 0.00449 µM and 0.0045 µM
GI50 (A498 renal): 0.0045 µM
TGI (A498 renal): 0.0181 µM
GI50 (HT29 colon): 0.00384 µM and 0.0045 µM
TGI (HT29 colon): 4.65 µM and > 45 µM
GI50 (MOLT-4 leukemia): 11 µM
TGI (MOLT-4 leukemia): > 45 µM
GI50 (786-0 renal): 0.0242 µM and 0.0045 µM
TGI (786-0 renal): 4.65 µM and > 45 µM
